In patent US10508086B2 (CANCER RESEARCH TECHNOLOGY LIMITED, priority 2014, dated 2019):
Like-named read-outs stand apart in the source and are kept apart here.

Legend:
[1] = molecular target: PARG in HeLa cell line (Homo sapiens (Human), UniProt Q86W56); assay: PARG cell assay (nuclear PAR chains after MMS, immunofluorescence); format: cell-based
Experimental: This method is based on the detection of endogenous levels of poly (ADP) ribose chains present in the nucleus of HeLa cell line using indirect immunofluorescence. MMS stimulation increases PAR chains for up to 25 mins. After that point, PARG is active and breaks down the PAR chains, until by one hour after stimulation no PAR chains are detectable. Inhibition of PARG maintains PAR chains.
Briefly, following compound treatment and treatment with the DNA damaging agent methylmethanesulfonate (MMS), the cell monolayer is fixed, then permeabilised and incubated with a mouse monoclonal antibody raised against multimers of poly(ADP) ribose. After an overnight incubation, excess antibody is removed by washing and an Alexafluor 488-linked secondary antibody which recognises the mouse monoclonal is added together with a nuclear stain (Hoechst 33342). Images of the cells are then captured and analysed on a High Content Screening platform and the total intensity of the nuclear fluorescent signal at […] is quantified.
HeLa cells, seeded in 384-well plates, at 4000/well in 30 μL RPMI 1640 media, supplemented with 10% FBS and 2 mM Glutamax, were incubated overnight at 37° C., 5% CO2.
The following day, cells were dosed in quadruplicate with compound (10 point dose response) and incubated for 1 h at 37° C., 5% CO2.
At the end of the 1 h dosing period, MMS was added to duplicates at a final concentration of 50 μg/mL, for a further hour.
Media was tipped off and the cells fixed with 50 μL ice-cold 95% MetOH/PBS for 15 mins at −20° C. Following a PBS wash, 50 μL PBS/0.1% Triton was added to the cells for 20 mins. Following another PBS wash, anti-PAR antibody (Calbiochem AM80) was diluted 1:4000 in a buffer (PBS+0.5% FBS+0.05% Tween20) and added to the cells and incubated overnight at 4° C.
The following day, cells were washed three times with PBS and then incubated for 1 hr with secondary antibody (Alexa Fluor® 488 goat anti mouse IgG (H+L)) diluted 1:1000 and Hoechst diluted 1:5000 in buffer (5% FBS in PBS+0.05% Tween20).
Cells were washed three times with PBS and the plate sealed with a light-proof seal.
Images of the cells were captured on a ThermoFisher Celllnsight and the mean total intensity of spots fluorescent at 485 nm in the nucleus was reported.

[2] = molecular target: Human Full Length PARG (Homo sapiens (Human), UniProt Q86W56); assay: PARG in vitro enzyme assay (TR-FRET); format: biochemical; conditions: read-out: PARG_EC50_ENZYME
Chain of Human Full Length PARG (Q86W56 whole entry): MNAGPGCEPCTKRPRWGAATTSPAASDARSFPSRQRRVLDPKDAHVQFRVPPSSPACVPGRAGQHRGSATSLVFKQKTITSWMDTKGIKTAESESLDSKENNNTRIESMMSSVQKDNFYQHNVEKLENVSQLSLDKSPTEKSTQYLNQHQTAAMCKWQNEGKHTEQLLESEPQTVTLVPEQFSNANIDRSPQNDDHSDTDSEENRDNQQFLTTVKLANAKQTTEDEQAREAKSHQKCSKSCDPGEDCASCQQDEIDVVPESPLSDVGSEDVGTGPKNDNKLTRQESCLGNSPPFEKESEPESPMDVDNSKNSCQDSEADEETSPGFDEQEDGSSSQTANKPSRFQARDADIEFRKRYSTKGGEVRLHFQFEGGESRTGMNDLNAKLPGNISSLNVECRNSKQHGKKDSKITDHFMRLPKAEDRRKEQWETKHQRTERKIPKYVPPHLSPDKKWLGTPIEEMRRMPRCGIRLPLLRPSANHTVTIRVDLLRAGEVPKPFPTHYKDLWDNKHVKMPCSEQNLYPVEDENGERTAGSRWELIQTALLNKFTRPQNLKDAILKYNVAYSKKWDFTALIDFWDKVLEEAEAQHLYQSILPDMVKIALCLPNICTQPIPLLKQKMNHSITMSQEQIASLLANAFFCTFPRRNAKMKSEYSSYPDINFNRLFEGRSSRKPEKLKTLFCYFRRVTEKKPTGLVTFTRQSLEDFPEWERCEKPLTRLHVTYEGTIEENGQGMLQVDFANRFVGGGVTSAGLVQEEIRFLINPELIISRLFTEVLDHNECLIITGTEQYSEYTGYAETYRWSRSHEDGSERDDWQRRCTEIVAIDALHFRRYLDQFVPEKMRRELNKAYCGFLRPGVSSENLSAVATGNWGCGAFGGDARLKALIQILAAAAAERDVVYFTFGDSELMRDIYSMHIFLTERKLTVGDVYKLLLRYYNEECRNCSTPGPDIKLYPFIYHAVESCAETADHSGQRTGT
Experimental: PARG In vitro assays were conducted in a total volume of 15 ul in a standard 384 well format. 5 ul of Human Full Length PARG (Produced internally by Astra Zeneca), used at a final reaction concentration of […], was added to 5 ul of Ribosylated PARP substrate (also produced internally by Astra Zeneca) at final reaction concentration of 4.5 nM in assay buffer (50 mM Tris pH7.4, 0.1 mg/ml BSA, 3 mM EDTA, 0.4 mM EGTA, 1 mM DTT, 0.01% Tween 20, 50 mM KCl). The reaction was incubated at room temperature for 10 minutes and then 5 ul detection reagent was added. Detection Reagent consists of 42 nM MAb Anti-6HIS XL665 (CisBio: 61 HISXLB) and 2.25 nM Streptavidin Europium Cryptate (CisBio: 610SAKLB), both at 3× working stock concentrations (final concentrations of 14 nM and 0.75 nM respectively), in a detection buffer of 50 mM Tris pH7.4, BSA at 0.1 mg/ml and KF at 100 mM. Following incubation at room temperature for 60 minutes in the dark, TR-FRET signal was measured at Ex 340 and Em 665 and Em 620. A ratio was calculated as Em665/EM620×104 for each well and used to calculate percent inhibition for test compounds.

[3] = HeLa cells, MMS 50 μg/mL, read-out: PARG Cell IC50 Geomean

Chain of PARG in HeLa cell line (Q86W56 whole entry): as above

| Structure (SMILES) | IC50 [1, 3] | EC50 [2] | IC50 [1] |
| --- | --- | --- | --- |
| Cc1cc(Cn2c(=O)n(-c3nnc(C)s3)c3cc(S(=O)(=O)NC4(C)CC4)ccc32)n(C)n1 [Example 84] | 271 nM | 359 nM | – |
| COc1ccc(Cn2c(=O)n(-c3nnc(C)s3)c3cc(S(=O)(=O)NC4(C)CC4)ccc32)cc1 [Example 86] | 277 nM | 403 nM | – |
| Cn1c(=O)n(-c2ncns2)c2cc(S(=O)(=O)NC3(C)CC3)ccc21 [Example 98] | 694 nM | 359 nM | – |
| Cc1nnc(-n2c(=O)n(Cc3sc(C)nc3C)c3ccc(S(=O)(=O)NC4(C)CC4)cc32)o1 [Example 99] | 342 nM | 202 nM | – |
| C#CCn1c(=O)n(-c2nnc(C)s2)c2cc(S(=O)(=O)NC3(C)CC3)ccc21 [Example 100] | 194 nM | 265 nM | – |
| Cc1nnc(-n2c(=O)n(Cc3ncco3)c3ccc(S(=O)(=O)NC4(C)CC4)cc32)s1 [Example 101] | 390 nM | 246 nM | – |
| Cc1ccc(Cn2c(=O)n(-c3nnc(C)s3)c3cc(S(=O)(=O)NC4(C)CC4)ccc32)o1 [Example 103] | 221 nM | 284 nM | – |
| Cc1ccc(Cn2c(=O)n(-c3nnc(C)s3)c3cc(S(=O)(=O)NC4(C)CC4)ccc32)s1 [Example 104] | 245 nM | 280 nM | – |
| COc1nsc(-n2c(=O)n(Cc3sc(C)nc3C)c3ccc(S(=O)(=O)NC4(C)CC4)cc32)n1 [Example 105] | 246 nM | 269 nM | – |
| Cc1cnc(-n2c(=O)n(Cc3sc(C)nc3C)c3ccc(S(=O)(=O)NC4(C)CC4)cc32)s1 [Example 107] | 159 nM | 86 nM | – |
| Cc1nc(C)c(Cn2c(=O)n(-c3nc(Br)ns3)c3cc(S(=O)(=O)NC4(C)CC4)ccc32)s1 [Example 108] | 67 nM | 69 nM | – |
| Cc1nc(C)c(Cn2c(=O)n(-c3nccs3)c3cc(S(=O)(=O)NC4(C)CC4)ccc32)s1 [Example 111] | 507 nM | 147 nM | – |
| CCOC(=O)n1c(=O)n(Cc2sc(C)nc2C)c2ccc(S(=O)(=O)NC3(C)CC3)cc21 [Example 112] | 850 nM | 140 nM | – |
| Cc1nnc(-n2c(=O)n(C)c3cc(F)c(S(=O)(=O)NC4(C)CC4)cc32)s1 [Example 116, 6-Fluoro-1-methyl-N-(1-methylcyclopropyl)-3-(5-methyl-1,3,4-thiadiazol-2-yl)-2-oxo-benzimidazole-5-sulfonamide] | 197 nM | 245 nM | – |
| CNC(=O)c1noc(Cn2c(=O)n(-c3nnc(C)o3)c3cc(S(=O)(=O)NC4(C)CC4)ccc32)n1 [Example 117] | 24700 nM | 275 nM | – |
| Cc1nnc(-n2cc(C(=O)C3CC3)c3ccc(S(=O)(=O)NC4(C)CC4)cc32)s1 [Example 130, 3-(Cyclopropanecarbonyl)-N-(1-methylcyclopropyl)-1-(5-methyl-1,3,4-thiadiazol-2-yl) indole-6-sulfonamide] | 135 nM | 218 nM | – |
| Cc1nnc(-n2cc(C(=O)c3ccc(F)cc3)c3ccc(S(=O)(=O)NC4(C)CC4)cc32)s1 [Example 131, 3-(4-Fluorobenzoyl)-N-(1-methylcyclopropyl)-1-(5-methyl-1,3,4-thiadiazol-2-yl)indole-6-sulfonamide] | – | 261 nM | 228 nM |

| Structure (SMILES) | IC50 [1, 3] | EC50 [2] | IC50 [1] |
| --- | --- | --- | --- |
| Cc1nnc(-n2c(=O)n(CCCN(C)C)c3ccc(S(=O)(=O)NC4(C)CC4)cc32)s1 [Example 135] | 371 nM | 512 nM | – |
| Cc1nnc(-n2c(=O)n(CC3CCCCN3C)c3ccc(S(=O)(=O)NC4(C)CC4)cc32)s1 (stereo not shown) [Example 143] | 343 nM | 441 nM | – |
| COCCn1c(=O)n(-c2nnc(C)s2)c2cc(S(=O)(=O)NC3(C)CC3)ccc21 [Example 147] | 437 nM | 461 nM | – |
| COCCCn1c(=O)n(-c2nnc(C)s2)c2cc(S(=O)(=O)NC3(C)CC3)ccc21 [Example 148] | 238 nM | 373 nM | – |
| Cc1nnc(-n2c(=O)n(CCN3CCOCC3)c3ccc(S(=O)(=O)NC4(C)CC4)cc32)s1 [Example 152] | 194 nM | 275 nM | – |
| Cc1nnc(-n2c(=O)n(CCC(N)=O)c3ccc(S(=O)(=O)NC4(C)CC4)cc32)s1 [Example 154] | 9080 nM | 614 nM | – |
| Cc1nnc(-n2c(=O)n(CC3CCCN3C)c3ccc(S(=O)(=O)NC4(C)CC4)cc32)s1 (stereo not shown) [Example 155] | 166 nM | 464 nM | – |
| Cc1nnc(-n2c(=O)n(C)c3ccc(S(=O)(=O)NC4(CF)CC4)cc32)s1 [Example 156, N-[1-(Fluoromethyl)cyclopropyl]-1-methyl-3-(5-methyl-1,3,4-thiadiazol-2-yl)-2-oxo-benzimidazole-5-sulfonamide] | 589 nM | 686 nM | – |
| Cc1nnc(-n2c(=O)[nH]c3ccc(S(=O)(=O)NC4(C#N)CC4)cc32)s1 [Example 157, N-(1-Cyanocyclopropyl)-3-(5-methyl-1,3,4-thiadiazol-2-yl)-2-oxo-1H-benzimidazole-5-sulfonamide] | 3500 nM | 1170 nM | – |
| CCn1c(=O)n(-c2nnc(C)s2)c2cc(S(=O)(=O)NC3(C#N)CC3)ccc21 [Example 158, N-(1-Cyanocyclopropyl)-1-ethyl-3-(5-methyl-1,3,4-thiadiazol-2-yl)-2-oxo-benzimidazole-5-sulfonamide] | 486 nM | 1040 nM | – |
| CCn1c(=O)n(-c2nnc(C)s2)c2cc(S(=O)(=O)NC3(CF)CC3)ccc21 [Example 159, 1-Ethyl-N-[1-(fluoromethyl)cyclopropyl]-3-(5-methyl-1,3,4-thiadiazol-2-yl)-2-oxo-benzimidazole-5-sulfonamide] | 349 nM | 590 nM | – |
| COCCn1c(=O)n(-c2nnc(C)s2)c2cc(S(=O)(=O)NC3(CF)CC3)ccc21 [Example 160, N-[1-(Fluoromethyl)cyclopropyl]-1-(2-methoxyethyl)-3-(5-methyl-1,3,4-thiadiazol-2-yl)-2-oxo-benzimidazole-5-sulfonamide] | 453 nM | 616 nM | – |
| COCCn1c(=O)n(-c2nnc(C)s2)c2cc(S(=O)(=O)NC3(C#N)CC3)ccc21 [Example 161, N-(1-Cyanocyclopropyl)-1-(2-methoxyethyl)-3-(5-methyl-1,3,4-thiadiazol-2-yl)-2-oxo-benzimidazole-5-sulfonamide] | 491 nM | 616 nM | – |
| COCCn1c(=O)n(-c2nnc(C(F)F)s2)c2cc(S(=O)(=O)NC3(C#N)CC3)ccc21 [Example 162, N-(1-Cyanocyclopropyl)-3-[5-(difluoromethyl)-1,3,4-thiadiazol-2-yl]-1-(2-methoxyethyl)-2-oxo-benzimidazole-5-sulfonamide] | 176 nM | 260 nM | – |
| COCCn1c(=O)n(-c2nnc(C(F)F)s2)c2cc(S(=O)(=O)NC3(CF)CC3)ccc21 [Example 163, 3-[5-(Difluoromethyl)-1,3,4-thiadiazol-2-yl]-N-[1-(fluoromethyl)cyclopropyl]-1-(2-methoxyethyl)-2-oxo-benzimidazole-5-sulfonamide] | 104 nM | 90 nM | – |
| Cc1cc(Cn2c(=O)n(-c3nnc(C(F)F)s3)c3cc(S(=O)(=O)NC4(CF)CC4)ccc32)n(C)n1 [Example 164, 3-[5-(Difluoromethyl)-1,3,4-thiadiazol-2-yl]-1-[(2,5-dimethylpyrazol-3-yl)methyl]-N-[1-(fluoromethyl)cyclopropyl]-2-oxo-benzimidazole-5-sulfonamide] | 109 nM | 203 nM | – |
| Cc1nsc(-n2c(=O)n(C)c3ccc(S(=O)(=O)NC4(CF)CC4)cc32)n1 [Example 177] | 2540 nM | – | – |
